Source: patent US4255183A, “Substituted phenyl urea and herbicides for use in paddy field” (Hokko Chemical Industry Co., Ltd., priority 1977, dated 1981)
Where two headings read alike, the source gives them in different places.

Experiments:
[1] = tested on: Echinochloa crus-galli var. oryzicola; test: Test Example 1: pot test on selectivity, inhibition of Echinochloa crus-galli var. oryzicola; format: in vivo; details: Echinochloa crus-galli, 720 h
Summary of the method: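 Inhibition rate was calculated from weed and rice dry weight relative to untreated pots, measured 30 days after treatment. The emulsion, at predetermined concentrations, was applied dropwise to flooded (~1 cm) paddy-soil pots sown with Echinochloa crus-galli var. oryzicola and rice, at the weed's one-leaf and five-leaf stages.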

[2] = tested on: paddy rice; test: Test Example 1: pot test on selectivity, inhibition of paddy rice; format: in vivo; details: for inhibition at 750 g/ha / inhibition at 1500 g/ha / inhibition at 3000 g/ha / inhibition at 6000 g/ha / inhibition at 9000 g/ha: Oryza sativa, 720 h
Summary of the method: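 Alluvial paddy soil in pots sown with Echinochloa crus-galli var. oryzicola (50 seeds) and paddy rice (30 seeds), submerged about 1 cm. Dry weights taken 30 days after chemical treatment; inhibition rate calculated relative to untreated area.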

[3] = tested on: Bulrush; test: Test Example 5: Wagner pot test, herbicidal effect on Bulrush; format: in vivo
Method: (§1) In a 1/7500 are Wagner pot, sieved paddy field soil (alluvial soil) was charged. Thereafter, in the center portion of the pot, 2 roots of paddy rice (Asahi species) at the 2- to 3-leaf stage were transplanted and 20 seeds of Bulrush per pot were seeded in the surface of the above soil. The pot was submerged at the depth of about 2 cm. The other Dopatrium junceum and umbrella plant were generated naturally. After seeding, when each of the weeds reached the same leaf age as defined in Table 5 given herein, a predetermined concentration of the emulsion prepared according to Example 4 was applied dropwise on the surface of the pot. The test was carried out by repeating the same test three times per area and the results were determined 20 days after the application of the chemicals with regard to the herbicidal effect and chemical injury on paddy rice on the basis of the evaluation index as shown below.
(§2) As the comparative chemicals Molinate, Benthiocarb and DCMU, those commercially available were used.
(§3) In the above table, the inhibition rate was calculated according to the method as described in Test Example 1.

[4] = tested on: Dopatrium junceum; test: Test Example 5: Wagner pot test, herbicidal effect on Dopatrium junceum; format: in vivo
Method: as §1, §2, §3

[5] = tested on: Umbrella plant; test: Test Example 5: Wagner pot test, herbicidal effect on umbrella plant; format: in vivo; details: 20 days after application
Method: as §1, §2, §3

[6] = tested on: paddy rice; test: Test Example 5: Wagner pot test, chemical injury on paddy rice; format: in vivo, paddy rice (Asahi species); also: key: 5: Completely killed; 4: Considerably injured; 3: Moderately injured; 2: A little injured; 1: Slightly injured; 0: Not injured
Method: as §1, §2

[7] = tested on: various weeds; details: known upland herbicides; cited from earlier work
[8] = tested on: paddy rice; details: known upland herbicides; cited from earlier work
[9] = read-out: Inhibition (%) by treatment at 1-leaf stage, E. crus-galli var. oryzicola
[10] = read-out: Inhibition (%) by treatment at 5-leaf stage, E. crus-galli var. oryzicola
[11] = read-out: Inhibition (%) by treatment at 1-leaf stage, paddy rice
[12] = read-out: Inhibition (%) by treatment at 5-leaf stage, paddy rice
[13] = 300 g/10a, leaf age 3, 20 days after application
[14] = 600 g/10a, leaf age 3, 20 days after application

## CN(C)C(=O)Nc1ccc(Cl)c(Cl)c1 [DCMU, 3-(3,4-dichlorophenyl)-1,1-dimethyl urea]
[1]; [9]
  inhibition at 750 g/ha: 91%
  inhibition at 1500 g/ha: 100%
  inhibition at 3000 g/ha: 100%
  inhibition at 6000 g/ha: 100%
  inhibition at 9000 g/ha: 100%
[1]; [10]
  inhibition at 750 g/ha: 76%
  inhibition at 1500 g/ha: 100%
  inhibition at 3000 g/ha: 100%
  inhibition at 6000 g/ha: 100%
  inhibition at 9000 g/ha: 100%
[2]; [11]
  inhibition at 750 g/ha: 92%
  inhibition at 1500 g/ha: 100%
  inhibition at 3000 g/ha: 100%
  inhibition at 6000 g/ha: 100%
  inhibition at 9000 g/ha: 100%
[2]; [12]
  inhibition at 750 g/ha: 61%
  inhibition at 1500 g/ha: 100%
  inhibition at 3000 g/ha: 100%
  inhibition at 6000 g/ha: 100%
  inhibition at 9000 g/ha: 100%
[2]; in vivo
  selectivity between Echinochloa crus-galli var. oryzicola and paddy rice: kill not only Echinochloa crus-galli var. oryzicola but also paddy rice
[3]; [13]
  Weed kill degree, Bulrush: 5 (100)
[3]; 300 g/10a, leaf age 3-5, 20 days after application
  Weed kill degree, Bulrush: 5 (100)
[3]; [14]
  Weed kill degree, Bulrush: 5 (100)
[3]; 600 g/10a, leaf age 3-5, 20 days after application
  Weed kill degree, Bulrush: 5 (100)
[4]; 300 g/10a, leaf age 2, 20 days after application
  Weed kill degree, Dopatrium junceum: 5 (100)
[4]; [13]
  Weed kill degree, Dopatrium junceum: 5 (100)
[4]; 600 g/10a, leaf age 2, 20 days after application
  Weed kill degree, Dopatrium junceum: 5 (100)
[4]; [14]
  Weed kill degree, Dopatrium junceum: 5 (100)
[5]; 300 g/10a, leaf age 2 (first group of columns)
  Weed kill degree, Umbrella plant: 5 (100)
[5]; 300 g/10a, leaf age 2 (second group of columns)
  Weed kill degree, Umbrella plant: 4-5
[5]; 600 g/10a, leaf age 2 (first group of columns)
  Weed kill degree, Umbrella plant: 5 (100)
[5]; 600 g/10a, leaf age 2 (second group of columns)
  Weed kill degree, Umbrella plant: 5 (100)
[6]; 300 g/10a, 3 tillers, 20 days after application
  Chemical injury on paddy rice: 4
[6]; [13]
  Chemical injury on paddy rice: 5
[6]; 600 g/10a, 3 tillers, 20 days after application
  Chemical injury on paddy rice: 5
[6]; [14]
  Chemical injury on paddy rice: 5
[7]
  herbicidal activity against various weeds: strong herbicidal activity
[8]
  chemical injury to paddy rice: strong chemical injury to paddy rice
